Measured values published in patent US20250177340A1, “Tartaric Acid Analogs and Uses Thereof” (Lapix Therapeutics, Inc., priority 2021, published 2025).

How the values were obtained:
Oral bioavailability = assay type: in vivo; settings: mouse, in vivo; suggested from 2.5 mg oral dose as efficacious as 0.25 mg IV; not evaluated in a PK study
KLRG1 = assay: Percent KLRG1+ T-cells in spleens, single dose on Day 7 (Examples 17, 19, 20); assay type: in vivo, C57BL6 mice
Description: (§1) Melanoma B16F10 cells were injected IV into C57BL6 mice on Day 0. On Day 7, mice were administered a single dose of 0.1 mg, 0.25 mg, or 1 mg of Compound E IV or 2.5 mg Compound E PO. One group was left untreated. Three mice at each time point were sacrificed, and their spleens were extracted. Percent KLRG1+ and PD-1^+ T-cells were quantified. Briefly, single-cell suspensions prepared from the extracted spleens were prepared and stained for KLRG1, PD-1 and CD8, and analyzed by flow cytometry.
as §1, with “of 0.03 mg,” for “of”, “0.3 mg” for “0.25 mg,”, “mg” for “mg of”, “F” for “E”, “1” for “2.5”
as §1, with “0.4” for “0.25”, “mg” for “mg of”, “G” for “E”, “1” for “2.5”

PD-1 [1] = assay: Percent PD-1+ T-cells in spleens, single dose on Day 7 (Examples 17, 19, 20); assay type: in vivo, C57BL6 mice; settings: E 0.1, 0.25, 1 mg IV or 2.5 mg PO, F 0.03-1 mg IV or 1 mg PO, G 0.1, 0.4, 1 mg IV or 1 mg PO
Description: as §1
as §1, with “of 0.03 mg,” for “of”, “0.3 mg” for “0.25 mg,”, “mg” for “mg of”, “F” for “E”, “1” for “2.5”
as §1, with “0.4” for “0.25”, “mg” for “mg of”, “G” for “E”, “1” for “2.5”

PD-1 [2] = assay: Percent PD-1+/CD8+ T-cells in splenocytes after a single dose, melanoma murine model; assay type: in vivo, mice
Description: (§2) The pharmacodynamic (PD) effects of a single IV dose of Compound B in a melanoma murine model were evaluated. B16F10 melanoma cells were grown in RPMI 1640 media supplemented with 10% FBS and antibiotics (penicillin/streptomycin) using T75 flasks. When cells reached 70-80% confluency, they were treated with 3 ml of 0.25% Trypsin/EDTA. Afterward, detached cells were harvested. A single-cell suspension was prepared in PBS. An IV injection of 10^5 cells in mice marked day −3 of the experiment.
(§3) Animals were housed four per cage, and had access to food and water ad libitum. Compound B was dissolved in sterile PBS, and pH was adjusted to approximately 7.5. Sterile PBS served as control.
(§4) Three days after the IV injection of melanoma cells, animals in the baseline group (n=3) were sacrificed and their spleens were collected for KLRG-1, CTLA-4, and PD-1 analysis. At each predetermined time-point (24, 48, and 120 hours after dosing) three animals from each group were sacrificed for splenocyte analysis of KLRG-1, CTLA-4, and PD-1 expression levels, and expression levels were compared to baseline.
(§5) Spleens collected for splenocyte analysis were prepared into a single-cell suspension for cellular phenotyping by flow cytometry. Cells were stained and gated for CD8. Percent KLRG-1+, CTLA-4+, and PD-1+ CD8+ T-cells were evaluated using flow cytometry.
(§6) The PD effects of a single IV dose of Compound C were evaluated in a melanoma murine model conducted as described in Example 10. […] This study also evaluated whether Compound C was pharmacodynamically active orally.
(§7) In a prior study, Compound C was dosed at 1 mg IV QD for seven days. […] A single PO dose was chosen to confirm oral activity of Compound C. Compound C was dissolved in DMSO, and then diluted in sterile PBS. pH was adjusted to approximately 7.5.
(§8) The oral and intravenous PD effects of a single dose of Compound E were evaluated in a melanoma murine model conducted as described in Example 10.
(§9) Compound E was dissolved in DMSO, and then diluted in sterile PBS. pH was adjusted to approximately 7.5.

B16 F10 melanoma cells = assay: Tumor growth inhibition using Compound E (Example 18); assay type: in vivo, C57BL/6 mice; settings: 0.3 or 3 mg orally daily for seven days
Description: C57BL/6 mice received 10^5 B16 F10 melanoma cells via SC injection on day 0. At day 7, mice were treated orally with Compound E at 0.3 or 3 mg daily for seven days. Tumor growth inhibition was monitored until all untreated animals reached end point, defined as death by disease (found dead in the cage) or tumor size of 1,000 mm^3 or greater.

KLRG-1 = assay: Percent KLRG-1+/CD8+ T-cells in splenocytes after a single dose, melanoma murine model; assay type: in vivo, mice
Description: as §2, §3, §4, §5, §6, §7, §8, §9

Granzyme B and IFN-γ = assay: Dose-response of GranzymeB/IFN-γ double positivity in murine CD8+ T-cells, Example 9; assay type: cell-based, C57BL/6 mice; settings: Mus musculus, T-cell
Description: A dose-response analysis of compounds B-E in murine CD8+ T-cells was conducted to evaluate the effect of dose on GranzymeB/IFN-γ double positivity.
Compound C, D and E were first dissolved in a small volume of DMSO before diluting to the final desired concentration.
Splenocytes from naïve C57BL/6 mice were stained with CFSE, prepared, cultured, and dosed. Cells were seeded at 2×10^5 cells/well. Negative control was dosed with 10 ng/ml IL-2. After ConA stimulation (10 μg/ml), cells were dosed with log 3 dilution of each compound from 3×10^−9 to 30 µM in triplicates. All wells were dosed with 10 ng/ml of IL-2.
Flow cytometer analysis was performed to assess percent CD8+ T-cells and percent activation by double staining for Granzyme B (GzmB) and IFN-γ as described in Example 7. Concentration versus response curve was fitted to a 4- or 5-parameter log-logistic model using the “dre” package in “R”. Both EC50 and EC90 were obtained by model fitting.

[3] = 0.1 mg/mouse IV single dose, 24 h
[4] = 0.1 mg/mouse IV single dose, 48 h
[5] = 0.1 mg/mouse IV single dose, 120 h
[6] = 0.25 mg/mouse IV single dose, 24 h
[7] = 0.25 mg/mouse IV single dose, 48 h
[8] = 0.25 mg/mouse IV single dose, 120 h
[9] = 1 mg/mouse IV single dose, 24 h
[10] = 1 mg/mouse IV single dose, 48 h
[11] = 1 mg/mouse IV single dose, 120 h
[12] = 2.5 mg/mouse po single dose, 24 h
[13] = 2.5 mg/mouse po single dose, 48 h
[14] = 2.5 mg/mouse po single dose, 120 h

With `O=C(O)[C@H](O)[C@@H](O)C(=O)NCCC(c1ccccc1)c1ccccc1` [Compound E, (2R,3R)-4-((3,3-diphenylpropyl)amino)-2,3-dihydroxy-4-oxobutanoic acid] the bioavailability (Oral bioavailability) was ≥ 10%, the “activity after oral administration (KLRG1+, PD1+ T-cells)” value (KLRG1; single PO dose: E 2.5 mg, F 1 mg, G 1 mg) was “effective after oral administration” and the “percent KLRG1+ T-cells compared to untreated animals” value (KLRG1; single dose, E 0.1, 0.25, 1 mg IV or 2.5 mg PO, F 0.03-1 mg IV or 1 mg PO, G 0.1, 0.4, 1 mg IV or 1 mg PO) was “reduction”. The “percent PD1+ T-cells compared to untreated animals” value (PD-1 [1]) was “reduction”, the “PD-1+/CD8+ T-cells, mean” value (PD-1 [2]; [3]) was 35% and the “PD-1+/CD8+ T-cells, mean” value (PD-1 [2]; [4]) was 26%. For the same compound, the “PD-1+/CD8+ T-cells, mean” value (PD-1 [2]; [5]) was 37%, the “PD-1+/CD8+ T-cells, mean” value (PD-1 [2]; [6]) was 23% and the “PD-1+/CD8+ T-cells, mean” value (PD-1 [2]; [7]) was 26%. The “PD-1+/CD8+ T-cells, mean” value (PD-1 [2]; [8]) was 32%, the “PD-1+/CD8+ T-cells, mean” value (PD-1 [2]; [9]) was 23% and the “PD-1+/CD8+ T-cells, mean” value (PD-1 [2]; [10]) was 30%. For the same compound, the “PD-1+/CD8+ T-cells, mean” value (PD-1 [2]; [11]) was 29%, the “PD-1+/CD8+ T-cells, mean” value (PD-1 [2]; [12]) was 25% and the “PD-1+/CD8+ T-cells, mean” value (PD-1 [2]; [13]) was 32%. The “PD-1+/CD8+ T-cells, mean” value (PD-1 [2]; [14]) was 30%, the “decrease from baseline in PD-1+/CD8+ T-cell” value (PD-1 [2]; single dose, 0.25 mg or higher, 24 hours) was “approximately 39%” and the tumor growth (B16 F10 melanoma cells) was “dose-dependent inhibition of tumor growth”. The “KLRG-1+/CD8+ T-cells, mean” value (KLRG-1; [3]) was 0.7%, the “KLRG-1+/CD8+ T-cells, mean” value (KLRG-1; [4]) was 1.2% and the “KLRG-1+/CD8+ T-cells, mean” value (KLRG-1; [5]) was 1.0%. For the same compound, the “KLRG-1+/CD8+ T-cells, mean” value (KLRG-1; [6]) was 0.6%, the “KLRG-1+/CD8+ T-cells, mean” value (KLRG-1; [7]) was 0.9% and the “KLRG-1+/CD8+ T-cells, mean” value (KLRG-1; [8]) was 0.6%. The “KLRG-1+/CD8+ T-cells, mean” value (KLRG-1; [9]) was 1.3%, the “KLRG-1+/CD8+ T-cells, mean” value (KLRG-1; [10]) was 0.6% and the “KLRG-1+/CD8+ T-cells, mean” value (KLRG-1; [11]) was 1.2%. The oral pharmacodynamic activity (KLRG-1; 2.5 mg PO single dose) was “effective after oral administration”, the “KLRG-1+/CD8+ T-cells, mean” value (KLRG-1; [12]) was 0.6% and the “KLRG-1+/CD8+ T-cells, mean” value (KLRG-1; [13]) was 1.9%. The “KLRG-1+/CD8+ T-cells, mean” value (KLRG-1; [14]) was 1.2%, the “time of nadir of exhaustion markers after dosing” value (KLRG-1; single dose, KLRG-1, CTLA-4, PD-1) was 24 h and the EC50 (Granzyme B and IFN-γ; 4-parameter model) was 0.093 µM. The EC90 (Granzyme B and IFN-γ; 4-parameter model) was 120 µM, the EC50 (Granzyme B and IFN-γ; 5-parameter model) was 0.023 µM and the EC90 (Granzyme B and IFN-γ; 5-parameter model) was 0.6 µM. The Emax (Granzyme B and IFN-γ; FIG. 4, 5-parameter fit, read-out: maximal response (GzmB/IFN-γ double positive CD8+ T-cells)) was ~60%.
